Source: patent publication US11634447B2 (priority 2012, dated 2023)

system: bacterial strain LF82 binding to the glycoprotein BSA-(Mannose)3; assay: Bacterial Binding Assay (BBA); assay type: cell-based, Escherichia coli; details: read-out: Bacterial Binding Assay IC50, LF82/Luciferase strain binding to BSA-(Man)3 coated plates, luminescence
Source text: The purpose of the Bacterial Binding Assay (BBA) is to determine the inhibition activity of
selective FimH antagonists on the bacterial strain LF82 binding to the glycoprotein BSA-(Mannose)3.
Below is a list of the Materials used to run the BBA are described below. • 1. LB broth: Supplier: Gibco, #10855 • 2. D-PBS: Supplier: Wisent, #311-425-CL • 3. LB agar plates • 4. 96-well black plate (high binding): Supplier: Costar, #3925 • 5. TopSeal™-A adhesive sealing films; Supplier PerkinElmer, #6005185 • 6. Carbonate-bicarbonate buffer pH 9.6 tablets, Supplier: Medicago, #09-8922-24 • 7. Water, Supplier: Gibco, #15230-162 • 8. Bovine serum albumin (BSA): Supplier: Sigma, #A-7888 • 9. (Man)3-BSA (α1-3, α1-6 Mannotriose-BSA, 1 mg), V-Labs, #NGP1336, lot #HGDX37-169-1 • 10. Tween 20: Supplier: Sigma, #P9416 • 11. Bright-Glo Luciferase Assay System: Supplier: Promega, #E2610 • 12. LF82/Luciferase strain: Invasive ability of an Escherichia coli strain isolated from the ileal mucosa of a patient with Crohn ? disease. Boudeau J, Glasser A L, Masseret E, Joly B, Darfeuille-Michaud A, Infect Immun. 1999, 67(9), 4499-509
Solutions and buffers used to run the BBA are described below. • 1. 0.04M carbonate-bicarbonate buffer (coating buffer) • 2. 40 μg/mL BSA-(Man)3: Dissolve 1 mg of (Man)3-BSA in 25 mL of water. • 3. 4000 μg/mL BSA • 4. 40 μg/mL BSA • 5. 1 μg/mL BSA-(Man)3: 150 μL of 40 μg/mL BSA-(Man)3+5.85 mL of 40 μg/mL BSA • 6. 0.5 μg/mL BSA-(Man)3 in 0.02M carbonate-bicarbonate buffer. • 7. 20 μg/mL BSA in 0.02M carbonate-bicarbonate buffer • 8. Blocking buffer (2% BSA/DPBS): 1 g of BSA in 50 mL D-PBS • 9. 2× binding buffer (0.2% BSA/D-PBS): 5 mL of blocking buffer+45 mL D-PBS. • 10. Washing buffer (D-PBS/0.01% Tween 20): 10 μL of Tween 20 in 100 mL D-PBS. • 11. 1× Bright-Glo Luciferase substrate: Dilute 1:1 the Bright-Glo Luciferase Assay System with D-PBS The experimental protocol to run the BBA is described below.
Overnight culture of LF82/Luciferase strain: Into two Falcon 50 mL tubes, add 20 mL of LB+20 μL of 50 mg/mL Kanamycin and inoculate with a loop from glycerol stock of the LF82/Luciferase strain. Incubate overnight at 37° C. with no shaking.
Glycoprotein coating of 96-well plates: Add 100 μL/well of 0.5-2 μg/mL BSA-(Man)3. 20 μg/mL BSA is used as the control background. Seal plate using an adhesive sealing film and incubate overnight at room temperature. Wash the 96-well plate three times with 150 μL/well of D-PBS, add 170 μL/well of blocking solution and incubate 45 min (minimum) at room temperature.
Preparation of bacterial suspension: Mix the two cultures tubes (40 mL) and perform a 1:10 dilution in LB (900 μl LB+100 μl culture. Measure optical density (OD) of the bacterial cultures. OD1 ˜5×10^8 cells/mL. Centrifuge LF82 culture for 20 min at 3500 rpm at room temperature. Re-suspend bacterial pellet in D-PBS and centrifuge again for 20 min at 3500 rpm. Re-suspend bacterial pellet in D-PBS to obtain a bacterial concentration of 2×10^9 bacteria/mL. Dilute 1/10 in D-PBS to obtain a final bacterial concentration of 2×10^8 bacteria/mL (=107 bacteria/50 μL). Perform 1/10 serial dilutions in LB of each bacterial suspension, plate 10 μL of dilutions on LB agar plates (final dilutions of 10^−7) and incubate overnight at 37° C. and count CFUs to determine the actual bacteria density in the assay.
Bacterial binding assay: Add 147 μL 2× binding buffer to compound plate (containing 3 μL of compound). After blocking step is performed (at least 45 min), wash plates three times with 200 μL/well of D-PBS. With a 100 μL multichannel manual pipettor, add 50 µL/well of compound diluted in 2× binding buffer. With a 100 μL multichannel manual pipettor, add 50 μL/well of bacterial suspension. Agitate at slow speed for 1 min and incubate 40-75 min at room temperature. Wash 5 times with 150 μL/well of washing buffer and then once with D-PBS. Add 100 μL/well of 1× Bright-Glo Luciferase substrate. […]

Structure (SMILES) | IC50 [µM]
CCc1cc(C#C[C@H]2O[C@H](CO)[C@@H](O)[C@H](O)[C@@H]2O)ccc1C#C[C@H]1O[C@H](CO)[C@@H](O)[C@H](O)[C@@H]1O [Compound 98, (2R,3S,4R,5S,6R)-2-[2-[3-ethyl-4-[2-[(2R,3S,4R,5S,6R)-3,4,5-trihydroxy-6-(hydroxymethyl)tetrahydropyran-2-yl]ethynyl]phenyl]ethynyl]-6-(hydroxymethyl)tetrahydropyran-3,4,5-triol] | 0.012
Cc1c(C#C[C@H]2O[C@H](CO)[C@@H](O)[C@H](O)[C@@H]2O)ccc(C#C[C@H]2O[C@H](CO)[C@@H](O)[C@H](O)[C@@H]2O)c1C [Compound 99, (2R,3S,4R,5S,6R)-2-[2-[2,3-dimethy1-4-[2-[(2R,3S,4R,5S,6R)-3,4,5-trihydroxy-6-(hydroxymethyl)tetrahydropyran-2-yl]ethynyl]phenyl]ethynyl]-6-(hydroxymethyl)tetrahydropyran-3,4,5-triol] | 0.145
Cc1cc(C#C[C@H]2O[C@H](CO)[C@@H](O)[C@H](O)[C@@H]2O)cc(C)c1C#C[C@H]1O[C@H](CO)[C@@H](O)[C@H](O)[C@@H]1O [Compound 100, (2R,3S,4R,5S,6R)-2-[2-[3,5-dimethyl-4-[2-[(2R,3S,4R,5S,6R)-3,4,5-trihydroxy-6-(hydroxymethyl)tetrahydropyran-2-yl]ethynyl]phenyl]ethynyl]-6-(hydroxymethyl)tetrahydropyran-3,4,5-triol] | 0.028
N#Cc1cc(C#C[C@H]2O[C@H](CO)[C@@H](O)[C@H](O)[C@@H]2O)ccc1C#C[C@H]1O[C@H](CO)[C@@H](O)[C@H](O)[C@@H]1O [Compound 101, 2,5-bis[2-[(2R,3S,4R,5S,6R)-3,4,5-trihydroxy-6-(hydroxymethyl)tetrahydropyran-2-yl]ethynyl]benzonitrile] | 0.021
OC[C@H]1O[C@H](C#Cc2ccc(C#C[C@H]3O[C@H](CO)[C@@H](O)[C@H](O)[C@@H]3O)c(Cl)c2)[C@@H](O)[C@@H](O)[C@@H]1O [Compound 102, (2R,3S,4R,5S,6R)-2-[2-[3-chloro-4-[2-[(2R,3S,4R,5S,6R)-3,4,5-trihydroxy-6-(hydroxymethyl)tetrahydropyran-2-yl]ethynyl]phenyl]ethynyl]-6-(hydroxymethyl)tetrahydropyran-3,4,5-triol] | 0.024
CC(C)c1cc(C#C[C@H]2O[C@H](CO)[C@@H](O)[C@H](O)[C@@H]2O)ccc1C#C[C@H]1O[C@H](CO)[C@@H](O)[C@H](O)[C@@H]1O [Compound 103, (2R,3S,4R,5S,6R)-2-(hydroxymethyl)-6-[2-[3-isopropyl-4-[2-[(2R,3S,4R,5S,6R)-3,4,5-trihydroxy-6-(hydroxymethyl)tetrahydropyran-2-yl]ethynyl]phenyl]ethynyl]tetrahydropyran-3,4,5-triol] | 0.0074
Cc1cc(C#C[C@H]2O[C@H](CO)[C@@H](O)[C@H](O)[C@@H]2O)ccc1C#C[C@H]1O[C@H](CO)[C@@H](O)[C@H](O)[C@@H]1O [Compound 104, (2R,3S,4R,5S,6R)-2-(hydroxymethyl)-6-[2-[3-methyl-4-[2-[(2R,3S,4R,5S,6R)-3,4,5-trihydroxy-6-(hydroxymethyl)tetrahydropyran-2-yl]ethynyl]phenyl]ethynyl]tetrahydropyran-3,4,5-triol] | 0.034
OC[C@H]1O[C@H](C#Cc2ccc(C#C[C@H]3O[C@H](CO)[C@@H](O)[C@H](O)[C@@H]3O)c(F)c2)[C@@H](O)[C@@H](O)[C@@H]1O [Compound 105, (2R,3S,4R,5S,6R)-2-[2-[3-fluoro-4-[2-[(2R,3S,4R,5S,6R)-3,4,5-trihydroxy-6-(hydroxymethyl)tetrahydropyran-2-yl]ethynyl]phenyl]ethynyl]-6-(hydroxymethyl)tetrahydropyran-3,4,5-triol] | 0.046
OC[C@H]1O[C@H](C#Cc2ccc3oc4ccc(C#C[C@H]5O[C@H](CO)[C@@H](O)[C@H](O)[C@@H]5O)cc4c3c2)[C@@H](O)[C@@H](O)[C@@H]1O [Compound 106, (2R,3S,4R,5S,6R)-2-(hydroxymethyl)-6-[2-[8-[2-[(2R,3S,4R,5S,6R)-3,4,5-trihydroxy-6-(hydroxymethyl)tetrahydropyran-2-yl]ethynyl]dibenzofuran-2-yl]ethynyl]tetrahydropyran-3,4,5-triol] | 0.0079
CCn1c2ccc(C#C[C@H]3O[C@H](CO)[C@@H](O)[C@H](O)[C@@H]3O)cc2c2cc(C#C[C@H]3O[C@H](CO)[C@@H](O)[C@H](O)[C@@H]3O)ccc21 [Compound 107, (2R,3S,4R,5S,6R)-2-[2-[9-ethyl-6-[2-[(2R,3S,4R,5S,6R)-3,4,5-trihydroxy-6-(hydroxymethyl)tetrahydropyran-2-yl]ethynyl]carbazol-3-yl]ethynyl]-6-(hydroxymethyl)tetrahydropyran-3,4,5-triol] | 0.013
OC[C@H]1O[C@H](C#Cc2ccc3[nH]c4ccc(C#C[C@H]5O[C@H](CO)[C@@H](O)[C@H](O)[C@@H]5O)cc4c3c2)[C@@H](O)[C@@H](O)[C@@H]1O [Compound 108, (2R,3S,4R,5S,6R)-2-(hydroxymethyl)-6-[2-[6-[2-[(2R,3S,4R,5S,6R)-3,4,5-trihydroxy-6-(hydroxymethyl)tetrahydropyran-2-yl]ethynyl]-9H-carbazol-3-yl]ethynyl]tetrahydropyran-3,4,5-triol] | 0.028
OC[C@H]1O[C@H](C#Cc2ccc3c(c2)sc2cc(C#C[C@H]4O[C@H](CO)[C@@H](O)[C@H](O)[C@@H]4O)ccc23)[C@@H](O)[C@@H](O)[C@@H]1O [Compound 109, (2R,3S,4R,5S,6R)-2-(hydroxymethyl)-6-[2-[7-[2-[(2R,3S,4R,5S,6R)-3,4,5-trihydroxy-6-(hydroxymethyl)tetrahydropyran-2-yl]ethynyl]dibenzothiophen-3-yl]ethynyl]tetrahydropyran-3,4,5-triol] | 0.02
CCCn1c2cc(C#C[C@H]3O[C@H](CO)[C@@H](O)[C@H](O)[C@@H]3O)ccc2c2ccc(C#C[C@H]3O[C@H](CO)[C@@H](O)[C@H](O)[C@@H]3O)cc21 [Compound 110, (2R,3S,4R,5S,6R)-2-(hydroxymethyl)-6-[2-[9-propyl-7-[2-[(2R,3S,4R,5S,6R)-3,4,5-trihydroxy-6-(hydroxymethyl)tetrahydropyran-2-yl]ethynyl]carbazol-2-yl]ethynyl]tetrahydropyran-3,4,5-triol] | 0.00089
CCn1c2cc(C#C[C@H]3O[C@H](CO)[C@@H](O)[C@H](O)[C@@H]3O)ccc2c2ccc(C#C[C@H]3O[C@H](CO)[C@@H](O)[C@H](O)[C@@H]3O)cc21 [Compound 111, (2R,3S,4R,5S,6R)-2-[2-[9-ethyl-7-[2-[(2R,3S,4R,5S,6R)-3,4,5-trihydroxy-6-(hydroxymethyl)tetrahydropyran-2-yl]ethynyl]carbazol-2-yl]ethynyl]-6-(hydroxymethyl)tetrahydropyran-3,4,5-triol] | 0.0021
